According to patent US20080026362A1, “Three-dimensional culture containing human articular chondrocytes with induced terminal differentiation changes, and preparation process and uses of the same” (Kaohsiung Medical University, priority 2006, published 2008):

What was measured:
Assay type in all cases: cell-based
[1] = tested on: alkaline phosphatase (ALP) gene; experiment: RT-PCR, mRNA expression of alkaline phosphatase in alginate-bead human articular chondrocytes (NHAC-kn); settings: p<0.01
Experimental: (§1) The alginate beads were prepared with reference to C. Sanchez et al. (2002), J. Rheumatol, 29:772-82. Briefly, the above-described human articular chondrocyte cultures were suspended in a 1.2% alginate solution in 0.9% NaCl, so as to form a cell suspension at a density of 1×10^6 cells/mL. The cell suspension was then slowly dropped into a 102 mM CaCl2 solution through a yellow pipette tip, to result in the formation of alginate beads entrapping the human articular chondrocytes. The thus-formed alginate beads were allowed to polymerize for further 10 minutes in the CaCl2 solution at room temperature.
(§2) After washing with saline solution, 15 alginate beads were cultivated in 5 ml of culture medium per well in a 6-well plate. […]
(§3) The NHAC-kn cultures were used in the following experiments except the quantitative real-time polymerase chain reaction (quantitative real-time PCR). The KMU-AC cultures were used to quantify mRNA expression by quantitative real-time PCR, which was performed to further confirm the effect of Aza-C on gene expression of human articular chondrocytes.
(§4) On Day 3, 7 and 14 after a 48 hr Aza-C treatment, expressions of the mRNA of type II and type X collagens and alkaline phosphatase (ALP) of Aza-C-treated and non-treated cells (control) were measured by RT-PCR. […]

[2] = tested on: human articular chondrocytes; experiment: Flow cytometry, cell size of articular chondrocytes; settings: Day 14 after 48 hr 15 μg/mL Aza-C, NHAC-kn
Experimental: (§5) The cultivated alginate beads as described above were treated with 15 μg/mL of 5-azacytidine (Sigma, St Louis, Mo.) for 48 hours. Thereafter, they were maintained in media without Aza-C for another 2 weeks. Cells were harvested on Day 3, 7 and 14 after Aza-C treatment, respectively. The control cultures were cultivated and harvested under the same conditions except that the treatment of Aza-C was omitted.
(§6) Human articular chondrocytes were released from the alginate beads by dissolving the beads in a 0.9% NaCl solution containing 0.05M sodium citrate and 0.03M sodium EDTA at pH 7.4. Cells for each experiment were collected by low-speed centrifugation at 1,000 rpm for 5 min.
as §3
The cell size of articular chondrocytes from the control and Aza-C treated cultures was analysed by flow cytometry on Day 14 after the Aza-C treatment. […] Cells (1×10^6) were then suspended in phosphate buffered saline and analysed immediately on a laser flow cytometer (EPICS Elite; Coulter, Hialeah, Fla.). […]

collagen type X gene [3] = experiment: Quantitative real-time PCR, mRNA expression of collagen type X in human articular chondrocytes (KMU-AC); settings: normalized to GAPDH, control Day 3 = 100%, mean ± S.E.M.
Experimental: as §1, with “temperature. […]” for “temperature.”
as §3
(§7) Quantitative real-time PCR was also performed to further confirm the finding from RT-PCR. On Day 3, 7 and 14 after a 48 hr Aza-C treatment, the mRNA expressions of type II and type X collagens and ALP of Aza-C treated and control cells were measured. […]
The thus-obtained PCR products (amplicons) were detected by the fluorescence of SYBR Green, the double stranded DNA binding dye (T. B. Morrison et al. (1998), Biotechniques, 24:954-958, 960, 962). […]

collagen type II gene [4] = experiment: Quantitative real-time PCR, mRNA expression of collagen type II in human articular chondrocytes (KMU-AC); settings: normalized to GAPDH, control Day 3 = 100%, mean ± S.E.M.
Experimental: as §1
(§8) After washing with saline solution, 15 alginate beads were cultivated in 5 ml of culture medium per well in a 6-well plate. Culture medium was the Chondrocyte basal medium (Bulletkit, Clonic®; BioWhittaker, Walkersville, Md.) with a supplement of the Chondrocyte growth medium, containing R3-IGF1, bFGF, transferrin, insulin, fetal bovine serum and gentamicin/amphotericin-B (SingleQuots, Clonic®; BioWhittaker, Walkersville, Md.). […]
as §3, §7
(§9) The quantitative real-time PCR was performed in an ABI Prism 7900 HT Sequence Detection System (Applied Biosystems, Foster City, Calif.) using the SYBR Green PCR Master Mix Reagent containing the Amplitag Gold DNA polymerase, dNTP mixed with dUTP, SYBR Green 1, passive reference and reaction buffer (Applied Biosystems, Foster City, Calif.). […]

ALP gene = experiment: Quantitative real-time PCR, mRNA expression of ALP in human articular chondrocytes (KMU-AC); settings: normalized to GAPDH, control Day 3 = 100%, mean ± S.E.M.
Experimental: as §1, §8, §3, §7, §9

collagen type X gene [5] = experiment: RT-PCR, mRNA expression of collagen type X in alginate-bead human articular chondrocytes (NHAC-kn); settings: p<0.01
Experimental: as §1
as §8, with “Md.). The alginate beads were cultured for 7 days at 37° C. in a humidified incubator with 5% CO2 and the culture medium was changed every 3 days.” for “Md.).”
as §3, §4
The thus-obtained PCR products (amplicons) were resolved by electrophoresis on a 1.4% agarose gel and visualised by ethidium bromide staining. The optical densities of the resolved bands were semi-quantified using a Bioimaging System (UVP Inc., Upland, Calif.). […] The optical intensity ratios of the PCR products to the 18S rRNA gene were calculated for comparison.

collagen type II gene [6] = experiment: RT-PCR, mRNA expression of collagen type II in alginate-bead human articular chondrocytes (NHAC-kn); settings: p<0.01
Experimental: as §1, §2, §3, §4

[7] = tested on: human articular chondrocytes; experiment: TUNEL assay, apoptotic rate of chondrocytes; settings: Day 14 after 48 hr 15 μg/mL Aza-C; NHAC-kn; p<0.01
Experimental: as §5, §6, §3
Fragmented DNA of an apoptotic cell was TUNEL stained using an In Situ Cell Death Detection Kit, TMR red (Roche, Germany). […] Slides were observed on a fluorescence microscope with an excitation wavelengthof 580 nm for rhodamine and 365 nm for DAPI. […] Stained cells were counted in 5 microscopic fields for each slide. […]

[8] = Day 7 after 48 hr treatment with 15 μg/ml Aza-C
[9] = Day 14 after 48 hr treatment with 15 μg/ml Aza-C
[10] = Day 3 after 48 hr 15 μg/mL Aza-C
[11] = Day 14 after 48 hr 15 μg/mL Aza-C
[12] = Day 7 after 48 hr 15 μg/mL Aza-C

- mRNA expression of ALP gene (RT-PCR, normalized to 18S rRNA) vs control group [1, 8]: significantly increased
- mRNA expression of ALP gene (RT-PCR, normalized to 18S rRNA) vs control group [1, 9]: significantly increased
Compound: Nc1ncn([C@@H]2O[C@H](CO)[C@@H](O)[C@H]2O)c(=O)n1 [Aza-C, 5-azacytidine]
- increase of cell size as compared to the control cultures [2]: 26%
- cell size of articular chondrocytes (relative intensity in forward scatter) ([2]; mean ± SEM, control cultures 404.41±1.45, p<0.01): 509.20±1.93
- Percentage change of mRNA expression of collagen type X by quantitative real-time PCR (collagen type X gene [3]; [10]): 398.0 ± 26.3 %
- Percentage change of mRNA expression of collagen type X by quantitative real-time PCR (collagen type X gene [3]; [11]): 335.0 ± 1.4 %
- Percentage change of mRNA expression of collagen type II by quantitative real-time PCR (collagen type II gene [4]; [10]): 7.3 ± 1.2 %
- Percentage change of mRNA expression of collagen type II by quantitative real-time PCR (collagen type II gene [4]; [12]): 1.0 ± 0.4 %
- Percentage change of mRNA expression of collagen type II by quantitative real-time PCR (collagen type II gene [4]; [11]): 3.0 ± 0.9 %
- Percentage change of mRNA expression of ALP by quantitative real-time PCR (ALP gene; [10]): 175.8 ± 13.5%
- Percentage change of mRNA expression of ALP by quantitative real-time PCR (ALP gene; [12]): 31,900.0 ± 4.7 %
- Percentage change of mRNA expression of ALP by quantitative real-time PCR (ALP gene; [11]): 735.6 ± 3.2 %
- mRNA expression of collagen type X gene (RT-PCR, normalized to 18S rRNA) vs control group (collagen type X gene [5]; Day 3 after 48 hr treatment with 15 μg/ml Aza-C): significantly increased
- mRNA expression of collagen type X gene (RT-PCR, normalized to 18S rRNA) vs control group (collagen type X gene [5]; [8]): significantly increased
- mRNA expression of collagen type X gene (RT-PCR, normalized to 18S rRNA) vs control group (collagen type X gene [5]; [9]): significantly increased
- mRNA expression of collagen type II gene (RT-PCR, normalized to 18S rRNA) vs control group (collagen type II gene [6]; [8]): significantly decreased
- mRNA expression of collagen type II gene (RT-PCR, normalized to 18S rRNA) vs control group (collagen type II gene [6]; [9]): significantly decreased
- apoptotic rate of articular chondrocytes (TUNEL stained / DAPI stained cells) vs control cultures [7]: significantly increased
